Target: T1, Mur23 (Streptomyces sp. NRRL 30471, UniProt F2WUD5)
T1 sequence (F2WUD5 1-388): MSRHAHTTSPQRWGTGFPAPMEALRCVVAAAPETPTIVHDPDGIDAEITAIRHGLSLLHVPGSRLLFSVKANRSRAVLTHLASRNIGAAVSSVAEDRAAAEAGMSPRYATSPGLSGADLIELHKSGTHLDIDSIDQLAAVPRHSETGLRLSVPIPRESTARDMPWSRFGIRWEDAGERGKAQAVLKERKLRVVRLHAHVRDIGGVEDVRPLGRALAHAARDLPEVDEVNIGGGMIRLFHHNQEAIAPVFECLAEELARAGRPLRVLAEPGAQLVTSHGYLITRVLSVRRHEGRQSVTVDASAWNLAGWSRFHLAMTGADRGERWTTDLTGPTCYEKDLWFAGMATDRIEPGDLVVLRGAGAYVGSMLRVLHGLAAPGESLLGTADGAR
Assay: co-purification, UV/Vis spectrum
Assay type: binding
Conditions: bound as purified

## Cc1ncc(COP(=O)(O)O)c(C=O)c1O [PLP, pyridoxal-5′-phosphate]
  co-purification, UV/Vis spectrum: Mur23 copurified with PLP as evident by the yellow color and the characteristic UV/Vis spectrum

Reference: PMC7377962 (Nature chemical biology, 2020)
